{
  "source": "patent US11266686B2",
  "about": "“Metal complexes and methods of treatment” (PROCYPRA THERAPEUTICS LLC, priority 2013, dated 2022)",
  "key": {"MPTP-lesioned mice [1]": {"system": "MPTP-lesioned mice", "assay": "Traction wire test in MPTP-lesioned mouse model of PD", "type": "in vivo", "conditions": "for average pull-up time as compared to SSV control: 30 mg/kg API oral for 21 days, gluconic acid NCD p=0.07; for Pull-up Time: 30 mg/kg CuATSM API equivalent, oral gavage for 21 days, average", "from_the_text": "Traction wire test: Mice are moved to behavior room-testing room 1 hr before test administration. Water and food remain accessible to the mice, and a background “white noise” from a radio is used throughout the hour and test period. Each mouse is pick up the mouse by the tail in one hand, and the mouse held by the tail over the wire until it grasps the wire with the front two paws. The tail is then lowered until the mouse is suspended from the wire by its front two paws. The timing is started as soon as the mouse is suspended independently, with no assistance from the test administrator. The time taken for the mouse to grasp the wire with one of the back feet, such that two front paws and one back paw are grasping the wire, is recorded as the “pull-up time”. The test is repeated for each mouse, three times in a row with a 5 minute inter-trial interval between each suspension on the wire. Mice are returned to their shared cages between trials. If a mouse falls it counts as a trial, and the time until the fall is recorded, and the inter-trial time interval is begun. If the mouse has not completed the task and has not fallen within 60 seconds, then the mouse is taken off the wire and the trial time recorded as 60 seconds. A total of 47 mice were administered MPTP. Of these, a total of 14 mice were then treated with SSV negative control. A total of 14 mice were treated with CuATSM in SSV, of which one mouse was eliminated from the wire pull-up study because of an injured paw. […] Trials in which the mouse fell during the trial were not included in the averages. […] In all instances the mice completed the other two trials successfully so that an average time was calculated for the individual mouse and subsequently for the population."}, "MPTP-lesioned mice [2]": {"system": "MPTP-lesioned mice", "assay": "Neutral Red positive cell count in substantia nigra of MPTP-lesioned mice", "type": "in vivo, mouse", "conditions": "30 mg/kg API oral for 21 days", "protocol": "CuATSM:gluconic acid (1:2) was prepared according to the method of EXAMPLE 7. CuATSM:saccharin (1:2) was prepared according to the methods of EXAMPLE 3. CuATSM was suspended in “Standard Suspension Vehicle” (SSV), consisting of 0.9% (w/v) NaCl, 0.5% (w/v) sodium carboxymethylcellulose, 0.5% (v/v) benzyl alcohol, and 0.4% (v/v) Tween 80 in deionized water. CuATSM:gluconic acid (1:2) and CuATSM:saccharin (1:2) were suspended in sterile water. Samples were prepared by adding one of the compounds to the liquid vehicle (water or SSV) in a vial and then vortexing the mixture for 3 min with a stir bar inside.\nMPTP mouse models of PD are described by (Przedborski & Vila, 2003). […] Behavioral testing via the wire test and tissue harvesting followed.\nNeuroprotective effects of the CuATSM and NCDs were determined by cell count.\nFollowing the wire pull-up time tests, the mice were anesthetized, blood samples were then obtained for plasma studies, and the mice were then sacrificed by an overdose of anesthetic. Mice were then immediately perfused with cold PBS. The right hemisphere of the brain was placed in 5 ml of chilled 4% wt/vol paraformaldehyde (Sigma-Aldrich) in 0.1 M phosphate buffer overnight at 4° C. and pH 7.4. The brains were then removed and left at 4° C. overnight in 30% wt/vol sucrose (domestic grade) in PBS before being frozen and sectioned on a cryostat. Brains were cut coronally into 30-μm sections in a 1:3 series for the substantia nigra pars compacta (SNpc).\nThe resulting sections were stained with Neutral Red (Niss1 stain; Sigma-Aldrich). Just prior to immunostaining, the frozen sections are fixed again for 5 min in order to ensure that the brain sections are properly fixed to the glass slide. SNpc nuclei from both normal and lesioned animals were examined. […]\nThe total number of neurons in the substania nigra was estimated using fractionator sampling (Finkelstein et al., 2000; Stanic et al., 2003; West & Gundersen, 1990). […] The entire SNpc was sampled at every third section and analyzed in a series having a random offset for each brain. […]"}},
  "data": [
    {"compound": "CNC1=NN=C(C)C(C)=NN=C(NC)[S][Cu][S]1", "note": "[CuATSM, Copper(II) diacetyl-di(N4-methyl)thiosemicarbazone, reference compound]", "values": [
      {"measurement": "average pull-up time as compared to SSV control", "setting": "MPTP-lesioned mice [1]", "value": "significant (both p<0.01 or less) decrease"},
      {"measurement": "Pull-up Time", "setting": "MPTP-lesioned mice [1]", "value": 4.22, "unit": "s"},
      {"measurement": "neurons in the substania nigra as compared to SSV control", "setting": "MPTP-lesioned mice [2]", "value": "significant (all p<0.01 or less) recovery of the neurons"}
    ]},
    {"compound": "CNC1=NN=C(C)C(C)=NN=C(NC)[S][Cu][S]1.O=C(O)C(O)C(O)C(O)C(O)CO.O=C(O)C(O)C(O)C(O)C(O)CO", "note": "[CuATSM:gluconic acid (1:2)]", "values": [
      {"measurement": "average pull-up time as compared to SSV control", "setting": "MPTP-lesioned mice [1]", "value": "decrease in the average pull-up time"},
      {"measurement": "Pull-up Time", "setting": "MPTP-lesioned mice [1]", "value": 4.62, "unit": "s"},
      {"measurement": "neurons in the substania nigra as compared to SSV control", "setting": "MPTP-lesioned mice [2]", "value": "significant (all p<0.01 or less) recovery of the neurons"}
    ]},
    {"compound": "CNC1=NN=C(C)C(C)=NN=C(NC)[S][Cu][S]1.O=C1NS(=O)(=O)c2ccccc21.O=C1NS(=O)(=O)c2ccccc21", "note": "[CuATSM:saccharin (1:2)]", "values": [
      {"measurement": "average pull-up time as compared to SSV control", "setting": "MPTP-lesioned mice [1]", "value": "significant (both p<0.01 or less) decrease"},
      {"measurement": "Pull-up Time", "setting": "MPTP-lesioned mice [1]", "value": 3.11, "unit": "s"},
      {"measurement": "neurons in the substania nigra as compared to SSV control", "setting": "MPTP-lesioned mice [2]", "value": "significant (all p<0.01 or less) recovery of the neurons"}
    ]}
  ]
}
